Laboratory results from US10206388B2, “Formulation component” (SYNGENTA LIMITED, priority 2011, dated 2019).

How the values were obtained:
Assay type in all cases: in vivo
Setaria viridis (SETVI) = assay: Glasshouse weed test, fomesafen with adjuvants; conditions: Table 8, Example 6: fomesafen 60 or 120 g/ha; adjuvant 0.2% v/v; mean over two rates, three replicates, 7, 14 and 20 days
Description: (§1) The aromatic ester Finsolv® TN (C12-C15 alkyl benzoate) was tested in a glasshouse against four weed species using the herbicide fomesafen. An agrochemical composition was prepared containing 0.2% v/v of the adjuvant in a track sprayer and was applied at a volume of 200 liters per hectare. Fomesafen was applied at either 60 or 120 grams of pesticide per hectare on each of the weed species. The weed species and their growth stage at spraying were Chenopodium album (CHEAL; growth stage 14), Abutilon theophrasti (ABUTH; growth stage 12), Setaria viridis (SETVI; growth stage 13), and Xanthium strumarium (XANST; growth stage 12).
(§2) Each spray test was replicated three times. The efficacy of the herbicide was assessed visually and expressed as a percentage of the leaf area killed. Samples were assessed at time periods of 7, 14 and 20 days following application. The results shown in Table 8 below are mean averages over the two rates of fomesafen, three replicates and the three assessment timings, and are compared to the efficacy of fomesafen in the absence of an adjuvant, and fomesafen in the presence of the commercially available adjuvant Turbocharge®.

[1] = tested on: Abutilon theophrasti (ABUTH); assay: Glasshouse weed test, fomesafen with adjuvants; conditions: Table 8, Example 6: fomesafen 60 or 120 g/ha; adjuvant 0.2% v/v; mean over two rates, three replicates, 7, 14 and 20 days
Description: as §1, §2

[2] = tested on: Xanthium strumarium (XANST); assay: Glasshouse weed test, fomesafen with adjuvants; conditions: Table 8, Example 6: fomesafen 60 or 120 g/ha; adjuvant 0.2% v/v; mean over two rates, three replicates, 7, 14 and 20 days
Description: as §1, §2

[3] = tested on: Chenopodium album (CHEAL); assay: Glasshouse weed test, fomesafen with adjuvants; conditions: Table 8, Example 6: fomesafen 60 or 120 g/ha; adjuvant 0.2% v/v; mean over two rates, three replicates, 7, 14 and 20 days
Description: as §1, §2

[4] = tested on: four weed species (POLCO, BRAL, DIGSA, COMBE); assay: Glasshouse weed test, fomesafen with adjuvants, mean across species; conditions: mean over two rates, three replicates, 14 and 21 days
Description: An agrochemical composition was prepared containing 0.2% v/v of the adjuvant in a track sprayer and was applied at a volume of 200 liters per hectare. The adjuvant oils were emulsified using a small amount of the surfactant Pluronic® PE 10500, which was present in the composition at a concentration of 0.02% v/v. Fomesafen was applied at either 60 or 120 grams of pesticide per hectare on each of the weed species. The weed species and their growth stage at spraying were Polygonum convolvulus (POLCO; growth stage 13-14), Brachiaria plantaginea (BRAL; growth stage 13-14), Digitaria sanguinalis (DIGSA; growth stage 14), and Commelina benghalensis (COMBE; growth stage 13-14).
as §2, with “of” for “of 7,”, “21” for “20”, “20” for “8”, “replicates the two assessment timings,” for “replicates”, “four weed species,” for “three assessment timings,”
An agrochemical composition was prepared containing either 0.2, 0.1, 0.05 or 0.025% v/v of the adjuvant in a track sprayer and was applied at a volume of 200 liters per hectare. The commercial adjuvant Turbocharge® was applied at 0.5% v/v. Fomesafen was applied at either 60 or 120 grams of pesticide per hectare on each of the weed species. The weed species and their growth stage at spraying were Polygonum convolvulus (POLCO; growth stage 13-14), Brachiaria plantaginea (BRAL; growth stage 12-13), Digitaria sanguinalis (DIGSA; growth stage 13), and Commelina benghalensis (COMBE; growth stage 12).
as §2, with “of” for “of 7,”, “21” for “20”, “24” for “8”, “replicates the two assessment timings,” for “replicates”, “four weed species,” for “three assessment timings,”, “Turbocharge®. […]” for “Turbocharge®.”
Each spray test was replicated three times. The efficacy of the herbicide was assessed visually and expressed as a percentage of the leaf area killed. Samples were assessed at time periods of 14 and 21 days following application. […]

[5] = tested on: four weed species (CHEAL, ABUTH, SETVI, XANST); assay: as above; conditions: adjuvant 0.2% v/v, mean over two rates
Description: as §1, §2
A second experiment was conducted to assess the efficacy of Finsolv® TN as an adjuvant in compositions of fomesafen. This was carried out as outlined above, with the following change: samples were assessed at 6, 14 and 20 days post application.
The results shown in Table 9 below are mean averages over the two rates of fomesafen, three replicates, three assessment timings, and four weed species and are compared to the efficacy of fomesafen in the absence of an adjuvant, and fomesafen in the presence of the commercially available tank-mix adjuvant, Turbocharge®.
An agrochemical composition was prepared containing 0.2% v/v of the adjuvant in a track sprayer and was applied at a volume of 200 liters per hectare. […]
Each spray test was replicated three times. The efficacy of the herbicide was assessed visually and expressed as a percentage of the leaf area killed. Samples were assessed at time periods of 7, 14 and 20 days following application. […]

SMILES: CS(=O)(=O)NC(=O)c1cc(Oc2ccc(C(F)(F)F)cc2Cl)ccc1[N+](=O)[O-] [Fomesafen, fomesafen]
- Mean percentage kill SETVI (Setaria viridis (SETVI)): 10.3 B %
- Mean percentage kill ABUTH [1]: 19.7 C %
- Mean percentage kill XANST [2]: 59.2 C %
- Mean percentage kill CHEAL [3]: 34.7 C %
- Mean percentage kill, Mean across species ([4]; Table 20, Example 16: fomesafen 60 or 120 g/ha, adjuvant 0.2% v/v emulsified with Pluronic PE 10500 0.02% v/v): 24.3D %
- Mean percentage kill, Mean across species ([4]; Table 24, Example 20: absence of an adjuvant, fomesafen 60 or 120 g/ha): 17.8E %
- Mean percentage kill, Mean across species ([4]; Table 28, Example 25: fomesafen 60 or 120 g/ha, adjuvant 0.2% v/v): 32.8C %
- Mean percentage kill, Mean across species ([4]; Table 34, Example 34: fomesafen 60 or 120 g/ha, adjuvant 0.2% v/v): 17.8B %
- Mean percentage kill, Mean across species ([5]; Table 8, Example 6: fomesafen 60 or 120 g/ha, three replicates, 7, 14 and 20 days): 31.0 C %
- Mean percentage kill, Mean across species ([5]; Table 9, Example 6 second experiment: fomesafen 60 or 120 g/ha, three replicates, 6, 14 and 20 days, four weed species): 44.9 B %
- Mean percentage kill, Mean across species ([5]; Table 15, Example 11: fomesafen 60 or 120 g/ha, three replicates, 7, 14 and 20 days, four weed species): 37.7 C %
